# Source: patent US9493537B2, “Compounds with reduced ring size for use in diagnosing and treating melanoma, including metastatic melanoma and methods related to same” (STC.UNM, priority 2009, dated 2016)
# Positions of bridges follow the written chain, without caps; N, C: chain ends. Non-standard residues stand in square brackets, D forms with d. Residues, ends and D or L forms follow the SMILES beside them. No end group written: not given here. *: point of attachment. DOTA = O=C(O)CN1CCN(CC(=O)O)CCN(CC(=O)*)CCN(CC(=O)O)CC1; Nle = CCCC[C@H](N)C(=O)O
# Experiments:
# MC1 receptor [1] = biological target: T1, MC1 receptor (Mus musculus, UniProt Q01727); assay: In vitro competitive binding assay with ^125I-Tyr^2-NDP-MSH in B16/F1 melanoma cells; design: host or cells: B16/F1 murine melanoma cells; species or system murine
# T1 sequence (Q01727 whole entry): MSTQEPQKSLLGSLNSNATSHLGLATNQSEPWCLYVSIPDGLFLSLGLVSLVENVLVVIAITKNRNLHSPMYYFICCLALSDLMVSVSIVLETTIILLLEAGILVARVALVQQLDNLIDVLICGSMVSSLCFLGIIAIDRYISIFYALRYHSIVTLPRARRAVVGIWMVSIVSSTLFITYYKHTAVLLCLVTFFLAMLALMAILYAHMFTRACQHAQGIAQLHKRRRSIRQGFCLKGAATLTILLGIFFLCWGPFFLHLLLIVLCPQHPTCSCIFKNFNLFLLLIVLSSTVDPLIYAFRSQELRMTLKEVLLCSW
# Description: B16/F1 cells were harvested and seeded into a 24-well cell culture plate (5×10^5 cells/well) and incubated at 37° C. overnight. […] The reaction medium was aspirated after the incubation. The cells were rinsed twice with 0.5 mL of ice-cold pH 7.4, 0.2% BSA/0.01 M phosphate buffered saline (PBS) and lysed in 0.5 mL of 1 N NaOH for 5 minutes. The activities associated with cells were measured in a Wallac 1480 automated gamma counter (PerkinElmer, N.J.). The IC50 value of the peptide was calculated using Prism software (GraphPad Software, La Jolla, Calif.).
# B16/F1 cells in 24-well cell culture plates (5×10^5 cells/well) were incubated at room temperature (25° C.) for 2 h with approximately 60,000 cpm of ^125I-Tyr^2-NDP-MSH in the presence of 10^−12 to 10^−5 M of each peptide in 0.3 mL of binding medium {Dulbecco's Modified Eagle's Medium with 25 mM N-(2-hydroxyethyl)-piperazine-N′-(2-ethanesulfonic acid), pH 7.4, 0.2% bovine serum albumin (BSA), 0.3 mM 1,10-phenathroline}. The medium was aspirated after the incubation. […] The activities associated with cells were measured in a Wallac 1480 automated gamma counter (PerkinElmer, Waltham, Mass.). The IC50 value of each peptide was calculated using Prism software (GraphPad Software, La Jolla, Calif.).
# [2] = In vitro serum stability in mouse serum; format: in vitro ADME; settings: 37° C., 24 h
# Description: After the incubation, 10 μL of 0.5% EDTA aqueous solution was added into the reaction vial to scavenge potential unbound ^111In^3+ ions. The radiolabeled peptide was purified to single species by Waters RP-HPLC (Milford, Mass.) on a Grace Vydac C-18 reverse phase analytical column (Deerfield, Ill.) using a 20-minute gradient of 18-28% acetonitrile in 20 mM HCl aqueous solution with a flow rate of 1.0 mL/min. Purified peptide sample was purged with N2 gas for 20 minutes to remove the acetonitrile. The pH of final solution was adjusted to 7.4 with 0.1 N NaOH and sterile normal saline for animal studies.
# Briefly, 50 μL of ^111InCl3 (37-74 MBq in 0.05 M HCl aqueous solution), 10 μL of 1 mg/mL peptide aqueous solution and 400 μL of 0.5 M NH4OAc (pH 4.5) were added into a reaction vial and incubated at 75° C. for 45 mins. After the incubation, 10 μL of 0.5% EDTA (ethylenediaminetetraacetic acid) aqueous solution was added into the reaction vial to scavenge potential unbound ^111In^3+ ions. The radiolabeled complexes were purified to single species by Waters RP-HPLC (Milford, Mass.) on a Grace Vydac C-18 reverse phase analytical column (Deerfield, Ill.) using the following gradient at a 1 mL/min flowrate. The mobile phase consisted of solvent A (20 mM HCl aqueous solution) and solvent B (100% CH3CN). The gradient was initiated and kept at 82:18 A/B for 3 mins followed by a linear gradient of 82:18 A/B to 72:28 A/B over 20 mins. Then, the gradient was changed from 72:28 A/B to 10:90 A/B over 3 mins followed by an additional 5 mins at 10:90 A/B. Thereafter, the gradient was changed from 10:90 AB to 82:18 AB over 3 mins. Each purified peptide sample was purged with N2 gas for 20 mins to remove the acetonitrile. The pH of the final solution was adjusted to 7.4 with 0.1 N NaOH and sterile saline for animal studies. In vitro serum stability of ^111In-DOTA-GGNle-CycMSHhex and ^111In-DOTA-GENle-CycMSHhex were determined by incubation in mouse serum at 37° C. for 24 h and monitored for degradation by RP-HPLC.
# B16/F1 melanoma [3] = assay: Biodistribution in B16/F1 melanoma-bearing C57 mice; format: in vivo; settings: for tumor uptake blocked by NDP-MSH co-injection: 10 μg (6.07 nmol) NDP-MSH
# Description: (§1) All the animal studies were conducted in compliance with Institutional Animal Care and Use Committee approval. The mice were housed five animals per cage in sterile micro-isolator cages in a temperature- and humidity-controlled room with a 12-h light/12-h dark schedule. […] C57 mice were subcutaneously inoculated on the right flank with 1×10^6 B16/F1 cells. The weight of tumors reached approximately 0.2 g 10 days post cell inoculation. […] Groups of 5 mice were sacrificed at 0.5, 2, 4 and 24 h post-injection, and tumors and organs of interest were harvested, weighed and counted. Blood values were taken as 6.5% of the whole-body weight. […] The mice were sacrificed at 2 h post-injection. The tumor and organs of interest were harvested, weighed and counted.
# (§2) All animal studies were conducted in compliance with Institutional Animal Care and Use Committee approval. The pharmacokinetics of ^111In-DOTA-GGNle-CycMSHhex and ^111In-DOTA-GENle-CycMSHhex were determined in B16/F1 melanoma-bearing C57 female mice (Harlan, Indianapolis, Ind.). The C57 mice were subcutaneously inoculated with 1×10^6 B16/F1 cells on the right flank for each mouse to generate B16/F1 melanomas. Ten days post inoculation, the tumor weights reached approximately 0.2 g. Each melanoma-bearing mouse was injected with 0.037 MBq of ^111In-DOTA-GGNle-CycMSHhex or ^111In-DOTA-GENle-CycMSHhex via the tail vein. Groups of 5 mice were sacrificed at 0.5, 2, 4 and 24 h post-injection, and tumors and organs of interest were harvested, weighed and counted. Blood values were taken as 6.5% of the whole-body weight. The specificities of the tumor uptake of ^111In-DOTA-GGNle-CycMSHhex and ^111In-DOTA-GENle-CycMSHhex were determined by co-injecting 10 μg (6.07 nmol) of unlabeled NDP-MSH which is a linear α-MSH peptide analogue with picomolar MC1 receptor binding affinity.
# [4] = as above; format: in vivo; settings: female, C57, mouse, iv, 0.037 MBq, total radioactivity; for tissue to tissue ratio at 4 h: 4 h post-injection
# Description: as §1, §2
# [5] = Metabolites in urine and melanoma by RP-HPLC; format: in vivo, C57 mice; settings: 2 h post-injection
# Description: The mouse used for the imaging study (2 h post-injection) described above was euthanized and the urine was collected for identifying the metabolites. The urinary sample was centrifuged at 16,000 g for 5 min prior to the HPLC analysis. The radioactive metabolite in the urine was analyzed by injecting aliquots of urine into the HPLC. A 20-minute gradient of 18-28% acetonitrile/20 mM HCl was used for the urine analysis.
# Both melanoma and urine were collected from the mouse used for SPECT/CT imaging to analyze the metabolites of ^111In-DOTA-GGNle-CycMSHhex in melanoma and urine. The tumor was homogenized by a VWR homogenizer for 5 mins. Equal volume of ethanol was added into the tumor sample. The tumor sample was vortexed and then centrifuged at 16,000 g for 5 mins. The supernatant was transferred into a glass test tube and purged with N2 gas for 20 mins to remove the ethanol. Aliquots of the supernatant were injected into HPLC. The urinary sample was directly centrifuged at 16,000 g for 5 mins prior to the HPLC analysis. Thereafter, aliquots of the urine were injected into HPLC. The HPLC gradient described above was used for the analyses of metabolites.
# MC1 receptor [6] = biological target: MC1 receptor (Homo sapiens, UniProt Q01726); settings: references 25, 26; cited from earlier work
# MC1 receptor (Homo sapiens, UniProt Q01726), sequence (Q01726 whole entry): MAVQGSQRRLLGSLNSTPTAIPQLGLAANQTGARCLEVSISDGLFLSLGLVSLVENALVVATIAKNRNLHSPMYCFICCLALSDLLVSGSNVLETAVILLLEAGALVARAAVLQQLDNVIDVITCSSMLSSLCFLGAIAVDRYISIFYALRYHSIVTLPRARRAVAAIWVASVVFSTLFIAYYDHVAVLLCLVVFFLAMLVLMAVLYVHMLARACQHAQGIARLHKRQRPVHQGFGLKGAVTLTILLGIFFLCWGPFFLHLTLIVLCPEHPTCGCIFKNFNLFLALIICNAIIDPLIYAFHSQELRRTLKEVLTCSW
# MC1 receptor [7] = biological target: T1, MC1 receptor; settings: cited from earlier work
# B16/F1 melanoma [8] = settings: references 19, 20; cited from earlier work
# B16/F1 melanoma [9] = settings: mouse, in vivo; cited from earlier work
compound,measurement,setting,value
CCCC[C@H](NC(=O)CN1CCN(CC(=O)O)CCN(CC(=O)O)CCN(CC(=O)O)CC1)C(=O)NCC(=O)N[C@@H](CCC(=O)O)C(=O)N[C@H]1CC(=O)NCCCC[C@@H](C(N)=O)NC(=O)[C@H](Cc2c[nH]c3ccccc23)NC(=O)[C@H](CCCNC(=N)N)NC(=O)[C@@H](Cc2ccccc2)NC(=O)[C@H](Cc2c[nH]cn2)NC1=O [DOTA-NleGE-CycMSHhex] ({DOTA}-[Nle]GEDH[dF]RWK-NH2; lactam 4-9),lower receptor binding affinity than DOTA-GGNle-CycMSHhex and DOTA-GENle-CycMSHhex,MC1 receptor [1],at least 78 fold
"CCCC[C@H](NC(=O)[C@H](CCC(=O)O)NC(=O)CNC(=O)CN1CCN(CC(=O)O)CCN(CC(=O)O)CCN(CC(=O)O)CC1)C(=O)N[C@H]1CC(=O)NCCCC[C@@H](C(N)=O)NC(=O)[C@H](Cc2c[nH]c3ccccc23)NC(=O)[C@H](CCCNC(=N)N)NC(=O)[C@@H](Cc2ccccc2)NC(=O)[C@H](Cc2c[nH]cn2)NC1=O [^111In-DOTA-GENle-CycMSHhex, metal not drawn] ({DOTA}-GE[Nle]DH[dF]RWK-NH2; lactam 4-9)",serum stability by RP-HPLC,[2],stable
same,tumor uptake blocked by NDP-MSH co-injection,B16/F1 melanoma [3]; 2 h post-injection,95.6%
same,Kidneys uptake,B16/F1 melanoma [3]; 0.5 h post-injection,9.06±2.20 % ID/g
same,Tumor/Skin uptake ratio,B16/F1 melanoma [3]; 0.5 h post-injection,7.21
same,Kidneys uptake,B16/F1 melanoma [3]; 2 h post-injection,5.54±0.63 % ID/g
same,Tumor/Skin uptake ratio,B16/F1 melanoma [3]; 2 h post-injection,24.30
same,Tumor/Skin uptake ratio,B16/F1 melanoma [3]; 4 h post-injection,44.17
same,Tumor/Skin uptake ratio,B16/F1 melanoma [3]; 24 h post-injection,27.50
"CCCC[C@H](NC(=O)CNC(=O)CNC(=O)CN1CCN(CC(=O)O)CCN(CC(=O)O)CCN(CC(=O)O)CC1)C(=O)N[C@H]1CC(=O)NCCCC[C@@H](C(N)=O)NC(=O)[C@H](Cc2c[nH]c3ccccc23)NC(=O)[C@H](CCCNC(=N)N)NC(=O)[C@@H](Cc2ccccc2)NC(=O)[C@H](Cc2c[nH]cn2)NC1=O [^111In-DOTA-GGNle-CycMSHhex, metal not drawn] ({DOTA}-GG[Nle]DH[dF]RWK-NH2; lactam 4-9)",serum stability by RP-HPLC,[2],stable
same,tissue uptake at 2 h,"[4]; liver, 2 h post-injection, read-out: Liver uptake",< 0.61 %ID/g
same,tissue to tissue ratio at 4 h,"[4]; tumor and kidney, tumor/kidney uptake ratio, times that of ^111In-DOTA-Nle-CycMSHhex",1.61
same,tissue to tissue ratio at 2 h,"[4]; tumor and kidneys, tumor/kidney uptake ratio, times that of ^111In-DOTA-Nle-CycMSHhex, 2 h post-injection",1.37
same,tissue to tissue ratio at 4 h,"[4]; tumor and liver, tumor/liver uptake ratio, times that of ^111In-DOTA-Nle-CycMSHhex",3.13
same,tumor uptake blocked by NDP-MSH co-injection,B16/F1 melanoma [3]; 2 h post-injection,Approximately 98%
same,Kidneys uptake,B16/F1 melanoma [3]; 0.5 h post-injection,15.19±2.75 % ID/g
same,Tumor uptake,B16/F1 melanoma [3]; 0.5 h post-injection,18.39±2.22 % ID/g
same,Tumor/Skin uptake ratio,B16/F1 melanoma [3]; 0.5 h post-injection,8.51
same,"tumor uptake, times that of ^111In-DOTA-GENle-CycMSHhex",B16/F1 melanoma [3]; 0.5 h post-injection,2 times
same,Kidneys uptake,B16/F1 melanoma [3]; 2 h post-injection,6.84±0.92 % ID/g
same,Tumor uptake,B16/F1 melanoma [3]; 2 h post-injection,19.05±5.04 % ID/g
same,Tumor/Skin uptake ratio,B16/F1 melanoma [3]; 2 h post-injection,70.56
same,"tumor uptake, times that of ^111In-DOTA-GENle-CycMSHhex",B16/F1 melanoma [3]; 2 h post-injection,2.5 times
same,Tumor uptake,B16/F1 melanoma [3]; 4 h post-injection,18.6±3.56 % ID/g
same,Tumor/Liver uptake ratio,B16/F1 melanoma [3]; 4 h post-injection,31.0
same,Tumor/Skin uptake ratio,B16/F1 melanoma [3]; 4 h post-injection,68.89
same,"tumor uptake, times that of ^111In-DOTA-GENle-CycMSHhex",B16/F1 melanoma [3]; 4 h post-injection,3 times
same,Tumor uptake,B16/F1 melanoma [3]; 24 h post-injection,6.77±0.84 % ID/g
same,Tumor/Skin uptake ratio,B16/F1 melanoma [3]; 24 h post-injection,26.04
same,melanoma metabolites by HPLC,[5]; tumor,remained intact
same,urinary metabolites by HPLC,[5]; urine,remained intact
Ac-Nle-c[Asp-His-DPhe-Arg-Trp-Lys(CONH2)] [MT-II],MC1 receptor binding affinity compared with the native α-MSH peptide,MC1 receptor [6],higher
same,MC1 receptor dissociation rate compared with the native α-MSH peptide,MC1 receptor [6],slower
"[Nle^4, D-Phe^7]-α-MSH [NDP-MSH]",affinity for the MC1 receptor,MC1 receptor [7],picomolar
"{DOTA}-GEK[Nle]EH[dF]RWGRPVD (lactam 3-14) [^111In-DOTA-GlyGlu-CycMSH, reference compound]",visualization of flank primary and pulmonary metastatic melanoma lesions by SPECT/CT,B16/F1 melanoma [8],clearly visualized
same,tumor radioactivity at 2 h remaining in tumors at 24 h,B16/F1 melanoma [9],22.8%
